This is an account of results in patent US6702987B1, “Bioactive porous partition members” (Dade Behring Inc., priority 1994, dated 2004).

Structures are written as SMILES.

The conditions of data set [1]: cited from earlier work.
A short description of data set [2]: Storage stability of agent incorporated in porous partition member and dried. It counts as physicochemical. The protocol: ADP is unstable in aqueous solution having a useful life of only about 4 hours.
Epinephrine is sensitive to aspirin induced defects in platelets.
The concentration of ADP solution used for incorporation into the membrane was 50 mg/ml, and that of the epinephrine solution was 10 mg/ml.
A strip of membrane was spot-coated with 1 μL of ADP or epinephrine solution. Therefore, each membrane placed in the Test Cartridge contained 50 μg of ADP or 10 μg of epinephrine. The membrane was then spot-coated with 1 μL of fibrillar Type I collagen suspension from horse tendon available from Nycomed AG.
Spot-coating involved putting spots of liquid agent on a strip of membrane. After spot-coating, the membrane was placed in a forced air drying chamber for 25 minutes for drying of the ADP or epinephrine, and formation of a collagen film on the coated areas. Once dried, an aperture was punched in the center of the spot and a membrane disk was cut from the membrane strip.

As to `Nc1ncnc2c1ncn2[C@@H]1O[C@H](COP(=O)(O)OP(=O)(O)O)[C@@H](O)[C@H]1O` [ADP, adenosine 5′-diphosphate], the “useful life in aqueous solution” value in data set [1] (aqueous solution) is reported as “about 4 hours”. In addition, the “stable when incorporated in a porous partition member” value in data set [2] (incorporated in porous partition member, dried, stored at about 4° C. under hermetically sealed conditions) was “about one and one-half”.

Regarding `CNC[C@H](O)c1ccc(O)c(O)c1` [epinephrine], the stability in solution result in data set [1] (in solution) was “unstable”. Also, in data set [2] (incorporated in porous partition member and dried), the “stability when incorporated in a porous partition member and dried” value is on record as “good stability”.
